Measured values: the supplement of paper PMC13380429

Key:
Conditions in all cases: 72 h
[1] = tested on: Caco-2; assay: cell viability relative to DMSO; higher = less toxic
[2] = tested on: Calu-3; assay: as above
[3] = tested on: HepG2; assay: as above
[4] = tested on: U2OS; assay: as above
[5] = tested on: Vero E6; assay: as above
[6] = tested on: Caco-2; assay: relative viability EC50 (midpoint between 100% and the lowest measured viability); higher = less toxic
[7] = tested on: Calu-3; assay: as above
[8] = tested on: HepG2; assay: as above
[9] = tested on: U2OS; assay: as above
[10] = tested on: Vero E6; assay: as above
[11] = tested on: Caco-2; assay: drug sensitivity score (DSS) for viability; higher = more toxic; extreme values may be limits of the assay
[12] = tested on: Calu-3; assay: as above
[13] = tested on: HepG2; assay: as above
[14] = tested on: U2OS; assay: as above
[15] = tested on: Vero E6; assay: as above

| SMILES | cell viability ([1]; 1 nM) [%] | cell viability ([1]; 10 nM) [%] | cell viability ([1]; 100 nM) [%] | cell viability ([1]; 1000 nM) [%] | cell viability ([1]; 10000 nM) [%] | cell viability ([2]; 1 nM) [%] | cell viability ([2]; 10 nM) [%] | cell viability ([2]; 100 nM) [%] | cell viability ([2]; 1000 nM) [%] | cell viability ([2]; 10000 nM) [%] | cell viability ([3]; 1 nM) [%] | cell viability ([3]; 10 nM) [%] | cell viability ([3]; 100 nM) [%] | cell viability ([3]; 1000 nM) [%] | cell viability ([3]; 10000 nM) [%] | cell viability ([4]; 1 nM) [%] | cell viability ([4]; 10 nM) [%] | cell viability ([4]; 100 nM) [%] | cell viability ([4]; 1000 nM) [%] | cell viability ([4]; 10000 nM) [%] | cell viability ([5]; 1 nM) [%] | cell viability ([5]; 10 nM) [%] | cell viability ([5]; 100 nM) [%] | cell viability ([5]; 1000 nM) [%] | cell viability ([5]; 10000 nM) [%] | relative viability EC50 [6] [µM] | relative viability EC50 [7] [µM] | relative viability EC50 [8] [µM] | relative viability EC50 [9] [µM] | relative viability EC50 [10] [µM] | drug sensitivity score [11] | drug sensitivity score [12] | drug sensitivity score [13] | drug sensitivity score [14] | drug sensitivity score [15] |
| --- | --- | --- | --- | --- | --- | --- | --- | --- | --- | --- | --- | --- | --- | --- | --- | --- | --- | --- | --- | --- | --- | --- | --- | --- | --- | --- | --- | --- | --- | --- | --- | --- | --- | --- | --- |
| CCCCC(CC)CCC(CC(C)C)OS(=O)(=O)O (stereo not given) [sodium-tetradecyl-sulfate] | 100 | 83 | 95.5 | 87.6 | 104 | 98.8 | 91.9 | 103 | 102 | 97.5 | 93.1 | 96.5 | 112 | 86.2 | 98.6 | 103 | 96 | 98.3 | 104 | 99.5 | 101 | 96.1 | 99.7 | 91 | 101 | > 10 | > 10 | > 10 | > 10 | > 10 | 0 | 0 | 0 | 0 | 0 |
| CC(C)(N)CC12CC3CC(CC(C3)C1)C2 [somantadine] | 100 | 95.9 | 104 | 96.2 | 93.4 | 100 | 99.8 | 99.1 | 94.3 | 96.8 | 100 | 101 | 95.5 | 84.8 | 87.4 | 100 | 95.5 | 99.5 | 91.7 | 92.4 | 97.1 | 98.3 | 100 | 100 | 96.1 | > 10 | > 10 | > 10 | > 10 | > 10 | 0 | 0 | 1.9 | 0 | 0 |
| CCCCCCCCCCCCC/C=C/[C@@H](O)[C@@H](N)CO[P@](=O)(O)OCC[N+](C)(C)C [sphingosylphosphorylcholine] | 91 | 90.4 | 102 | 101 | 102 | 94.2 | 106 | 87.7 | 97.5 | 107 | 86 | 98.8 | 88.5 | 102 | 104 | 94 | 97 | 101 | 95.7 | 100 | 99.4 | 103 | 94.1 | 105 | 109 | > 10 | > 10 | > 10 | > 10 | > 10 | 0 | 0 | 0 | 0 | 0 |
| Cc1ccc2c(c1)[C@H]1CN(C)CC[C@H]1N2 [stobadine] | 96.5 | 91.9 | 92.2 | 96 | 95.8 | 97.2 | 116 | 93 | 94.5 | 102 | 107 | 110 | 97.2 | 97.4 | 95.8 | 100 | 98.7 | 101 | 99.6 | 101 | 101 | 102 | 99.7 | 103 | 94.1 | > 10 | > 10 | > 10 | > 10 | > 10 | 0 | 0 | 0 | 0 | 0 |
| C[C@H](CCC(=O)NCCS(=O)(=O)O)[C@H]1CC[C@H]2[C@@H]3[C@H](O)C[C@@H]4C[C@H](O)CC[C@]4(C)[C@H]3C[C@H](O)[C@]12C [taurocholate] | 110 | 86.9 | 104 | 87.2 | 92.2 | 103 | 99 | 109 | 102 | 96.3 | 105 | 74 | 99.8 | 108 | 98.4 | 100 | 98.9 | 101 | 98.9 | 99.2 | 104 | 106 | 107 | 110 | 95 | > 10 | > 10 | > 10 | > 10 | > 10 | 0 | 0 | 0 | 0 | 0 |
| O=S1(=O)CCN(CN2CCS(=O)(=O)NC2)CN1 [taurolidine] | 102 | 118 | 104 | 96.6 | 87.9 | 99.8 | 95.2 | 97.6 | 92.7 | 94.4 | 106 | 89.8 | 104 | 99.2 | 97.2 | 97.3 | 98.3 | 95.8 | 103 | 98.7 | 114 | 99.7 | 101 | 97.5 | 99.4 | > 10 | > 10 | > 10 | > 10 | > 10 | 0.2 | 0 | 0 | 0 | 0 |
| C[N+]1(C)[C@@H]2C[C@@H](OC(=O)C(O)(c3cccs3)c3cccs3)C[C@H]1[C@@H]1O[C@@H]12 [tiotropium] | 105 | 100 | 101 | 99.5 | 104 | 102 | 98.7 | 96.4 | 95.2 | 108 | 102 | 93.9 | 98.8 | 99.4 | 104 | 93.4 | 94 | 95.3 | 96.8 | 108 | 103 | 98.6 | 101 | 95.9 | 102 | > 10 | > 10 | > 10 | > 10 | > 10 | 0 | 0 | 0 | 0 | 0 |
| COc1ccc(/C=C/C(=O)O)cc1 [trans-4-methoxycinnamic-acid] | 95.1 | 99.6 | 88.7 | 100 | 88.3 | 103 | 92.2 | 108 | 98 | 98.8 | 106 | 92 | 100 | 91.7 | 96.3 | 101 | 96.3 | 102 | 98.6 | 97.5 | 99.3 | 102 | 98.1 | 103 | 97.7 | > 10 | > 10 | > 10 | > 10 | > 10 | 0 | 0 | 0 | 0 | 0 |
| O=C(O[C@H]1C[C@H]2CC[C@@H](C1)[N+]21CCCC1)C(O)(c1ccccc1)c1ccccc1 [trospium] | 92.8 | 97.1 | 94.7 | 98.3 | 99.9 | 101 | 101 | 97.2 | 98.2 | 94.3 | 98.3 | 93.8 | 107 | 94.8 | 108 | 95.7 | 97.5 | 101 | 99.1 | 88.9 | 95.6 | 99.5 | 93 | 95.3 | 102 | > 10 | > 10 | > 10 | > 10 | > 10 | 0 | 0 | 0 | 0 | 0 |
| O=c1cc[nH]c(=O)[nH]1 [uracil] | 91.5 | 90.6 | 91.3 | 93.8 | 98.5 | 91.8 | 95.2 | 93 | 94.6 | 95.6 | 98.6 | 94 | 99.6 | 102 | 117 | 91.7 | 98.7 | 94.8 | 102 | 103 | 96.2 | 88.4 | 91.8 | 89.5 | 112 | > 10 | > 10 | > 10 | > 10 | > 10 | 0 | 0 | 0 | 0 | 0 |
| CC[C@]12CCCN3CCc4c(n(c5ccccc45)C(=O)C1)[C@@H]32 [vinburnine] | 94.4 | 98.5 | 106 | 114 | 78.6 | 96.8 | 97.4 | 93.7 | 97.7 | 88.8 | 93.6 | 89.9 | 102 | 78.7 | 32.2 | 94.2 | 97.4 | 96.7 | 95.6 | 79.3 | 103 | 96.6 | 100 | 96.9 | 86.2 | > 10 | > 10 | 1.37 | > 10 | > 10 | 0.4 | 0 | 6.8 | 1.2 | 0.4 |
| C[C@@H](c1ncncc1F)[C@](O)(Cn1cncn1)c1ccc(F)cc1F [voriconazole] | 101 | 92.5 | 102 | 85.6 | 110 | 92.4 | 97.5 | 92.4 | 99.8 | 110 | 100 | 106 | 86.9 | 107 | 122 | 103 | 101 | 97.6 | 97.4 | 109 | 98.8 | 101 | 97.8 | 108 | 105 | > 10 | > 10 | > 10 | > 10 | > 10 | 0 | 0 | 0 | 0 | 0 |
| O=C[C@H](O)[C@@H](O)[C@H](O)CO [xylose] | 94 | 94.3 | 94.2 | 90.4 | 92.7 | 104 | 93 | 98.4 | 97.9 | 85.4 | 106 | 101 | 101 | 98 | 96.8 | 95.1 | 95.3 | 94.5 | 96.4 | 96.3 | 96.7 | 96.1 | 99.4 | 94.3 | 92.6 | > 10 | > 10 | > 10 | > 10 | > 10 | 0 | 0.3 | 0 | 0 | 0 |
| N=C(N)NC(=O)c1cnn(-c2cccc3ncccc23)c1C1CC1 [zoniporide] | 89.6 | 91.8 | 101 | 102 | 95 | 99.8 | 95.1 | 93.8 | 94.5 | 99.6 | 89.9 | 99.2 | 105 | 103 | 101 | 98.8 | 101 | 104 | 100 | 98.6 | 92.7 | 102 | 94.9 | 97.5 | 104 | > 10 | > 10 | > 10 | > 10 | > 10 | 0 | 0 | 0 | 0 | 0 |
